Reference: PubChem BioAssay AID330 (DTP/NCI, 2004)
“And” between values parts separate entries of the source, which are not always exact repeats. Equal values may be shown once. Inconclusive results and toxic doses are left out.

Tested on: P388 leukemia ip, CD2F1 mice, survival T/C
Assay: NCI In Vivo Anticancer Drug Screen. Data for tumor model P388 Leukemia (intraperitoneal) in CD2F1 (CDF1) mice
Conditions: endpoint: median survival time, higher = longer survival
In short: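 Mice carrying the transplanted tumor received test compound or vehicle. Survival was recorded in each group, and the value is the treated-group measurement divided by that of the vehicle-treated control group.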

[1] = dose: 100.0 mg/kg/injection, schedule: Q01DX001 (ip), vehicle: Klucel (hydroxypropylcellulose) (HPC)
[2] = dose: 200.0 mg/kg/injection, schedule: Q01DX001 (ip), vehicle: Klucel (hydroxypropylcellulose) (HPC)
[3] = dose: 400.0 mg/kg/injection, schedule: Q01DX001 (ip), vehicle: Klucel (hydroxypropylcellulose) (HPC)
[4] = dose: 50.0 mg/kg/injection, schedule: Q04DX002 (ip), vehicle: saline with Tween-80
[5] = dose: 100.0 mg/kg/injection, schedule: Q04DX002 (ip), vehicle: saline with Tween-80
[6] = dose: 200.0 mg/kg/injection, schedule: Q04DX002 (ip), vehicle: saline with Tween-80
[7] = dose: 6.25 mg/kg/injection, schedule: Q01DX009 (ip), vehicle: saline with Tween-80
[8] = dose: 12.5 mg/kg/injection, schedule: Q01DX009 (ip), vehicle: saline with Tween-80
[9] = dose: 25.0 mg/kg/injection, schedule: Q01DX009 (ip), vehicle: saline with Tween-80
[10] = dose: 50.0 mg/kg/injection, schedule: Q01DX005 (ip), vehicle: Klucel (hydroxypropylcellulose) (HPC)
[11] = dose: 100.0 mg/kg/injection, schedule: Q01DX005 (ip), vehicle: Klucel (hydroxypropylcellulose) (HPC)
[12] = dose: 200.0 mg/kg/injection, schedule: Q01DX005 (ip), vehicle: Klucel (hydroxypropylcellulose) (HPC)
[13] = dose: 50.0 mg/kg/injection, schedule: Q01DX009 (ip), vehicle: Klucel (hydroxypropylcellulose) (HPC)
[14] = dose: 100.0 mg/kg/injection, schedule: Q01DX009 (ip), vehicle: Klucel (hydroxypropylcellulose) (HPC)
[15] = dose: 200.0 mg/kg/injection, schedule: Q01DX009 (ip), vehicle: Klucel (hydroxypropylcellulose) (HPC)
[16] = dose: 50.0 mg/kg/injection, schedule: Q01DX009 (ip), vehicle: saline
[17] = dose: 100.0 mg/kg/injection, schedule: Q01DX009 (ip), vehicle: saline
[18] = dose: 200.0 mg/kg/injection, schedule: Q01DX009 (ip), vehicle: saline
[19] = dose: 25.0 mg/kg/injection, schedule: Q04DX002 (ip), vehicle: saline with Tween-80
[20] = dose: 60.0 mg/kg/injection, schedule: Q01DX005 (ip), vehicle: saline with Tween-80
[21] = dose: 120.0 mg/kg/injection, schedule: Q01DX005 (ip), vehicle: saline with Tween-80
[22] = dose: 240.0 mg/kg/injection, schedule: Q01DX005 (ip), vehicle: saline with Tween-80
[23] = dose: 50.0 mg/kg/injection, schedule: Q01DX009 (ip), vehicle: saline with Tween-80
[24] = dose: 100.0 mg/kg/injection, schedule: Q01DX009 (ip), vehicle: saline with Tween-80

## Cn1nncc1NS(=O)(=O)c1ccc([N+](=O)[O-])cc1
dose: 100.0 mg/kg/injection, schedule: Q01DX001 (ip), vehicle: saline with Tween-80
  T/C: 107 % of control
dose: 200.0 mg/kg/injection, schedule: Q01DX001 (ip), vehicle: saline with Tween-80
  T/C: 115 % of control
dose: 400.0 mg/kg/injection, schedule: Q01DX001 (ip), vehicle: saline with Tween-80
  T/C: 98 % of control

## COc1ccc(-n2c(=O)c(N=Nc3ccccc3C)c(O)n(-c3ccccc3Cl)c2=S)cc1
[1]
  T/C: 100 % of control
[2]
  T/C: 99 % of control
[3]
  T/C: 95 % of control

## CCCCCCCCCCCCCCCCCC(=O)[O][Hg][c]1ccccc1
dose: 2.5 mg/kg/injection, schedule: Q04DX003 (ip), vehicle: Klucel (hydroxypropylcellulose) (HPC)
  T/C: 100 % of control
dose: 5.0 mg/kg/injection, schedule: Q04DX003 (ip), vehicle: Klucel (hydroxypropylcellulose) (HPC)
  T/C: 100 % of control
dose: 10.0 mg/kg/injection, schedule: Q04DX003 (ip), vehicle: Klucel (hydroxypropylcellulose) (HPC)
  T/C: 100 % of control

## C/C=C/c1ccc(OC(C)C(=O)c2ccc(OC)c(OC)c2)c(OC)c1 (stereo not drawn)
dose: 10.0 mg/kg/injection, schedule: Q01DX005 (ip), vehicle: Klucel (hydroxypropylcellulose) (HPC)
  T/C: 97 % of control
dose: 20.0 mg/kg/injection, schedule: Q01DX005 (ip), vehicle: Klucel (hydroxypropylcellulose) (HPC)
  T/C: 100 % of control
dose: 40.0 mg/kg/injection, schedule: Q01DX005 (ip), vehicle: Klucel (hydroxypropylcellulose) (HPC)
  T/C: 99 % of control

## CN(c1ccc(Cc2ccc(N(C)S(C)(=O)=O)cc2)cc1)S(C)(=O)=O
[4]
  T/C: 110 % of control
[5]
  T/C: 101 % of control
[6]
  T/C: 94 % of control
dose: 400.0 mg/kg/injection, schedule: Q04DX002 (ip), vehicle: saline with Tween-80
  T/C: 92 % of control

## COC1=NC=CC=CC1
[7]
  T/C: 103 % of control
[8]
  T/C: 111 % of control
[9]
  T/C: 107 % of control

## ClCCN(CCCl)c1ccc(/C=N/Nc2c3ccccc3nc3ccccc23)cc1
dose: 6.25 mg/kg/injection, schedule: Q01DX009 (ip), vehicle: DMSO
  T/C: 88 % of control
dose: 12.5 mg/kg/injection, schedule: Q01DX009 (ip), vehicle: DMSO
  T/C: 90 % of control

## N=c1nc(-c2ccccc2)c(-c2ccccc2)nn1CC(=O)c1ccccc1
[10]
  T/C: 112 % of control
[11]
  T/C: 101 % of control
[12]
  T/C: 94 % of control

## Cc1cc2cc3c(=O)[nH]c(=O)nc-3n(CC(O)C(O)C(O)CO)c2cc1C (stereo not drawn)
dose: 15.0 mg/kg/injection, schedule: Q01DX005 (ip), vehicle: saline with Tween-80
  T/C: 101 % of control and 103 % of control
dose: 30.0 mg/kg/injection, schedule: Q01DX005 (ip), vehicle: saline with Tween-80
  T/C: 116 % of control and 98 % of control

## CN1CC(C(=O)O)=Nc2c1nc(N)[nH]c2=O
[7]
  T/C: 101 % of control
[8]
  T/C: 109 % of control
[9]
  T/C: 101 % of control

## CC1(C)OP(=O)(O)c2ccccc21
[13]
  T/C: 100 % of control
[14]
  T/C: 100 % of control
[15]
  T/C: 88 % of control

## CC(C)(C)c1ccnc(C(O)(C(F)(F)F)C(F)(F)F)c1
dose: 25.0 mg/kg/injection, schedule: Q01DX005 (ip), vehicle: Klucel (hydroxypropylcellulose) (HPC)
  T/C: 93 % of control
[10]
  T/C: 101 % of control
[11]
  T/C: 108 % of control
[12]
  T/C: 103 % of control

## [Cl][Pd]([Cl])([Cl])[Cl]
dose: 12.5 mg/kg/injection, schedule: Q01DX009 (ip), vehicle: saline
  T/C: 86 % of control
dose: 25.0 mg/kg/injection, schedule: Q01DX009 (ip), vehicle: saline
  T/C: 96 % of control
[16]
  T/C: 95 % of control

## CCCCCCOC(=O)c1ccccc1NC(=O)NN1CCCCCC1
[10]
  T/C: 100 % of control
[11]
  T/C: 102 % of control
[12]
  T/C: 100 % of control

## OCc1nc2ccccc2[nH]1
dose: 25.0 mg/kg/injection, schedule: Q01DX009 (ip), vehicle: Klucel (hydroxypropylcellulose) (HPC)
  T/C: 96 % of control
[13]
  T/C: 97 % of control
[14]
  T/C: 96 % of control
[15]
  T/C: 114 % of control

## Sc1ccccc1N=Cc1ccc(C=Nc2ccccc2S)cc1
[16]
  T/C: 98 % of control
[17]
  T/C: 99 % of control
[18]
  T/C: 97 % of control

## CCCC1N[C@H](C(=O)O)CS1 (stereo partly drawn)
dose: 50.0 mg/kg/injection, schedule: Q01DX001 (ip), vehicle: Klucel (hydroxypropylcellulose) (HPC)
  T/C: 100 % of control
[1]
  T/C: 97 % of control
[2]
  T/C: 102 % of control
[3]
  T/C: 100 % of control

## Cc1c2cnccc2c(C)c2c1c1ccccc1n2CCCCCCCCCCCCn1c2ccccc2c2c(C)c3cnccc3c(C)c21
[19]
  T/C: 98 % of control
[4]
  T/C: 100 % of control
[5]
  T/C: 100 % of control
[6]
  T/C: 98 % of control

## COc1ccc2c(c1O)C13CCN(C)[C@@H](C2)C12CC2/C(=N/O)[C@H]3OC(C)=O (stereo partly drawn)
[10]
  T/C: 92 % of control
[11]
  T/C: 97 % of control

## CC(C)(/C=N/O)N1CC=CCC1
dose: 12.5 mg/kg/injection, schedule: Q04DX002 (ip), vehicle: saline with Tween-80
  T/C: 101 % of control
[19]
  T/C: 100 % of control
[4]
  T/C: 97 % of control

## O=c1[nH]c2c([N+](=O)[O-])cc(Cl)cc2nc1/C=C(\O)c1ccc2ccccc2c1
[20]
  T/C: 98 % of control
[21]
  T/C: 90 % of control
[22]
  T/C: 99 % of control

## CCSC1(SCC)C(=O)OC2=C(CCCCC2)C1N(C)c1ccccc1 (stereo not drawn)
[8]
  T/C: 93 % of control
[9]
  T/C: 99 % of control
[23]
  T/C: 99 % of control

## O=C(O)CCOCCC(=O)O
dose: 50.0 mg/kg/injection, schedule: Q01DX005 (ip), vehicle: saline
  T/C: 97 % of control
dose: 100.0 mg/kg/injection, schedule: Q01DX005 (ip), vehicle: saline
  T/C: 97 % of control
dose: 200.0 mg/kg/injection, schedule: Q01DX005 (ip), vehicle: saline
  T/C: 97 % of control

## CCCCCCCCCC(O)(CSc1ccccc1)CSc1ccccc1
[23]
  T/C: 99 % of control
[24]
  T/C: 100 % of control
dose: 200.0 mg/kg/injection, schedule: Q01DX009 (ip), vehicle: saline with Tween-80
  T/C: 114 % of control

## COC(=O)c1c(C(=O)c2ccccc2)nnn1-c1cccc(C(F)(F)F)c1
dose: 60.0 mg/kg/injection, schedule: Q01DX005 (ip), vehicle: Klucel + Tween-80
  T/C: 102 % of control
dose: 120.0 mg/kg/injection, schedule: Q01DX005 (ip), vehicle: Klucel + Tween-80
  T/C: 103 % of control
dose: 240.0 mg/kg/injection, schedule: Q01DX005 (ip), vehicle: Klucel + Tween-80
  T/C: 107 % of control

## Cc1noc(NC(=O)NC(=O)c2c(F)cccc2F)c1C
[4]
  T/C: 99 % of control
[5]
  T/C: 99 % of control
[6]
  T/C: 100 % of control

## NC(=O)C1(Br)C=[N+](Cc2ccccc2)CCC1 (stereo not drawn)
dose: 60.0 mg/kg/injection, schedule: Q01DX005 (ip), vehicle: saline
  T/C: 103 % of control
dose: 120.0 mg/kg/injection, schedule: Q01DX005 (ip), vehicle: saline
  T/C: 95 % of control

## O=C(Nc1ccc(F)cc1)N1CCOCC1
[20]
  T/C: 98 % of control
[21]
  T/C: 93 % of control
[22]
  T/C: 93 % of control

## c1ccc2c(c1)CCc1ccccc1C2NC1=NCCSC1
[23]
  T/C: 86 % of control
[24]
  T/C: 93 % of control

## C=CCN1Cc2ccccc2-c2ccccc2C1
[16]
  T/C: 94 % of control
[17]
  T/C: 106 % of control
[18]
  T/C: 108 % of control

## CC(C)c1nc(N)nc(N)n1
[16]
  T/C: 93 % of control
[18]
  T/C: 90 % of control

## COc1ccc2c(c1)CSCC2=O
[13]
  T/C: 98 % of control
[14]
  T/C: 98 % of control
[15]
  T/C: 100 % of control

## c1cc2c(cc1CN1CCOCC1)Sc1cc(CN3CCOCC3)ccc1N2
dose: 60.0 mg/kg/injection, schedule: Q01DX005 (ip), vehicle: Klucel (hydroxypropylcellulose) (HPC)
  T/C: 96 % of control
dose: 120.0 mg/kg/injection, schedule: Q01DX005 (ip), vehicle: Klucel (hydroxypropylcellulose) (HPC)
  T/C: 89 % of control
dose: 240.0 mg/kg/injection, schedule: Q01DX005 (ip), vehicle: Klucel (hydroxypropylcellulose) (HPC)
  T/C: 92 % of control
